Patent US20170283440A1, “CARM1 INHIBITORS AND USES THEREOF” (Epizyme, Inc., priority 2014, published 2017)

Each compound was assayed on asymmetric di-methyl PABP1 in RKO cells (assay: RKO methylation assay (In Cell Western for asymmetric di-methyl PABP1)). Settings: 48 hours incubation, read-out: Cellular IC50.
Format: cell-based
Source text: RKO adherent cells were purchased from ATCC (American Type Culture Collection), Manassas, Va., USA. DMEM/Glutamax medium, penicillin-streptomycin, heat inactivated fetal bovine serum, 0.05% trypsin and D-PBS were purchased from Life Technologies, Grand Island, N.Y., USA. Odyssey blocking buffer, 800CW goat anti-rabbit IgG (H+L) antibody, and Licor Odyssey infrared scanner were purchased from Licor Biosciences, Lincoln, Nebr., USA. Asymmetric di-methyl PABP1 antibody was purchased from Cell Signaling Technology, Danvers, Mass., USA. Methanol was purchased from VWR, Franklin, Mass., USA. 10% Tween 20 was purchased from KPL, Inc., Gaithersburg, Md., USA. Paraformaldehyde (PFA) was purchased from EM Sciences. DRAQ5 was purchased from Biostatus Limited, Leicestershire, UK.
RKO adherent cells were maintained in growth medium (DMEM/Glutamax medium supplemented with 10% v/v heat inactivated fetal bovine serum and 100 units/mL penicillin-streptomycin) and cultured at 37° C. under 5% CO2.
Compound (100 nL) from a 96-well source plate was added directly to 384 well cell plate. Plates were incubated at 37° C., 5% CO2 for 48 hours. After two days of incubation, plates were brought to room temperature outside of the incubator for ten minutes and blotted on paper towels to remove cell media. Cells were fixed for 20 minutes at room temperature by adding 50 ul of 8% PFA followed by aspiration of supernatant with the Biotek EL406 plate washer. Cells were then permeabilized by addition of 50 μL of ice cold 100% methanol directly to each well and incubated for 30 min at room temperature. After 30 min, plates were transferred to a Biotek EL406 plate washer and washed 2 times with 100 μL per well of wash buffer (IX PBS). Next 60 μL per well of Odyssey blocking buffer (Odyssey Buffer with 0.1% Tween 20 (v/v)) were added to each plate and incubated 1 hour at room temperature. Blocking buffer was removed and 20 μL per well of primary antibody was added (asymmetric-methyl PABP1) diluted 1:400 in Odyssey buffer with 0.1% Tween 20 (v/v)) and plates were incubated overnight (16 hours) at 4° C. Plates were washed 5 times with 100 μL per well of wash buffer. Next 20 μL per well of secondary antibody was added (1:800 800CW goat anti-rabbit IgG (H+L) antibody, 1:2000 DRAQ5 in Odyssey buffer with 0.1% Tween 20 (v/v)) and incubated for 1 hour at room temperature. The plates were washed 5 times with 100 μL per well wash buffer then 2 times with 100 μL per well of water. Plates were allowed to dry at room temperature then imaged on the Licor Odyssey machine which measures integrated intensity at 700 nm and 800 nm wavelengths. Both 700 and 800 channels were scanned.
First, the ratio for each well was determined by:
Each plate included fourteen control wells of DMSO only treatment (minimum inhibition) as well as fourteen control wells for maximum inhibition treated with 20 μM of a reference compound. The average of the ratio values for each control type was calculated and used to determine the percent […] for each test well in the plate. Reference compound was serially diluted three-fold in DMSO for a total of nine test concentrations, beginning at 20 μM.
Percent inhibition was determined and IC50 curves were generated using triplicate wells per concentration of compound.

IC50	SMILES
10 to 20 µM	CC(C)n1ncc2c(N3CCOCC3)cc(-c3cccc(OCC(O)CN)c3)nc21 (stereo not shown) [Example 11-1]

Same assay, conditions: Homo sapiens, 48 hours incubation, read-out: Cellular IC50

IC50	SMILES
> 20 µM	CNCC(O)COc1cccc(-c2cc(NC(=O)NC3CCOCC3)c3cnn(C(C)C)c3n2)c1 (stereo not shown) [Example 2-1]
10 to 20 µM	CC(C)n1ncc2c(N3CCOCC3)cc(-c3cccc(OCC(O)CN)c3)nc21 (stereo not shown) [Example 3-1]
> 20 µM	CNC(=O)Nc1cc(-c2cccc(OCC(O)CN)c2)nc2c1cnn2C(C)C (stereo not shown) [Example 8-1]
> 20 µM	CNCC(O)COc1cccc(-c2cc(NCCN)c3cnn(C(C)C)c3n2)c1 (stereo not shown) [Example 9-1]
> 20 µM	COC(=O)Nc1cc(-c2cccc(OCC(O)CN)c2)nc2c1cnn2C(C)C (stereo not shown) [Example 10-1]
> 20 µM	CC(C)n1ncc2c(N3CCOCC3)cc(-c3cccc(OC[C@@H](O)CN)c3)nc21 [Example 12-1]
> 20 µM	CC(C)n1ncc2c(NC(=O)N(C)C)cc(-c3cccc(OCC(O)CN)c3)nc21 (stereo not shown) [Example 14-1]
> 20 µM	CNCC(O)COc1cccc(-c2cc(N(C)C3CCOC3)n3ncc(C(C)C)c3n2)c1 (stereo not shown) [Example 14-6]
> 20 µM	CNCC(O)COc1cccc(-c2cc(NCCCN)c3cnn(C(C)C)c3n2)c1 (stereo not shown) [Example 15-1]
> 20 µM	CC(C)n1ncc2c(NC3CC3)cc(-c3cccc(OCC(O)CN)c3)nc21 (stereo not shown) [Example 15-9]
10 to 20 µM	CNCC(O)COc1cccc(-c2cc(NC(=O)OC)c3cnn(C(C)C)c3n2)c1 (stereo not shown) [Example 16-1]
> 20 µM	COC(=O)CNc1cc(-c2cccc(OCC(O)CN)c2)nc2c1cnn2C(C)C (stereo not shown) [Example 16-9]
> 20 µM	CCOC(=O)Nc1cc(-c2cccc(OCC(O)CN)c2)nc2c1cnn2C(C)C (stereo not shown) [Example 17-1]
> 20 µM	CNCC(O)COc1cccc(-c2cc(NC3CC3)c3cnn(C(C)C)c3n2)c1 (stereo not shown) [Example 18-9]
> 20 µM	CC(C)n1ncc2c(NC3CCOCC3)cc(-c3cccc(OCC(O)CN)c3)nc21 (stereo not shown) [Example 19-1]
> 20 µM	CNCC(O)COc1cccc(-c2cc(N3CCOCC3)c3cnn(C(C)C)c3n2)c1 (stereo not shown) [Example 20-1]
> 20 µM	CNCC(O)COc1cccc(-c2cc(NC(=O)N(C)C)c3cnn(C(C)C)c3n2)c1 (stereo not shown) [Example 21-1]
> 20 µM	CNCC(O)COc1cccc(-c2cc(NCCCCN)c3cnn(C(C)C)c3n2)c1 (stereo not shown) [Example 22-1]
> 20 µM	CNCC(O)COc1cccc(-c2cc(NC)c3cnn(C(C)C)c3n2)c1 (stereo not shown) [Example 22-9]
> 20 µM	CNCC(O)COc1cccc(-c2cc(NCC(=O)OC)c3cnn(C(C)C)c3n2)c1 (stereo not shown) [Example 23-1]
> 20 µM	CNCC(O)COc1cccc(-c2cc(Nc3ccccn3)c3cnn(C(C)C)c3n2)c1 (stereo not shown) [Example 24-1]
> 20 µM	CC(C)n1ncc2c(NCc3cccnc3)cc(-c3cccc(OCC(O)CN)c3)nc21 (stereo not shown) [Example 25-1]
> 20 µM	CC(C)n1ncc2c(NCc3ccncc3)cc(-c3cccc(OCC(O)CN)c3)nc21 (stereo not shown) [Example 26-1]
10 to 20 µM	CC(C)n1ncc2c(N(C)C3CCOCC3)cc(-c3cccc(OCC(O)CN)c3)nc21 (stereo not shown) [Example 28-1]
10 to 20 µM	CNCC(O)COc1cccc(-c2cc(NC3CCOCC3)c3cnn(C(C)C)c3n2)c1 (stereo not shown) [Example 29-1]
> 20 µM	CC(C)n1ncc2c(NCC3CCOCC3)cc(-c3cccc(OCC(O)CN)c3)nc21 (stereo not shown) [Example 30-1]
> 20 µM	CNCC(O)COc1cccc(-c2cc(NCCCCCN)c3cnn(C(C)C)c3n2)c1 (stereo not shown) [Example 32-1]

IC50	SMILES
10 to 20 µM	CNCC(O)COc1cccc(-c2cc(N(C)c3ccccn3)c3cnn(C(C)C)c3n2)c1 (stereo not shown) [Example 33-1]
10 to 20 µM	CNCC(O)COc1cccc(-c2cc(NCc3ccccn3)c3cnn(C(C)C)c3n2)c1 (stereo not shown) [Example 34-1]
> 20 µM	CC(C)n1ncc2c(NCc3cccc(O)c3)cc(-c3cccc(OCC(O)CN)c3)nc21 (stereo not shown) [Example 35-1]
> 20 µM	Cc1c(CNc2cc(-c3cccc(OCC(O)CN)c3)nc3c2cnn3C(C)C)cnn1C (stereo not shown) [Example 37-1]
> 20 µM	CC(C)n1ncc2c(N[C@H]3CO[C@@H]4OCC[C@@H]43)cc(-c3cccc(OCC(O)CN)c3)nc21 (stereo partly shown) [Example 38-1]
5 to 10 µM	CNCC(O)COc1cccc(-c2cc(N(C)C3CCOCC3)c3cnn(C(C)C)c3n2)c1 (stereo not shown) [Example 40-1]
> 20 µM	CNCC(O)COc1cccc(-c2cc(NCC3CCOCC3)c3cnn(C(C)C)c3n2)c1 (stereo not shown) [Example 41-1]
> 20 µM	CC(C)n1ncc2c(N(C)CC3CCOCC3)cc(-c3cccc(OCC(O)CN)c3)nc21 (stereo not shown) [Example 42-1]
> 20 µM	CNCC(O)COc1cccc(-c2cc(NCCCCCCN)c3cnn(C(C)C)c3n2)c1 (stereo not shown) [Example 43-1]
10 to 20 µM	CNCC(O)COc1cccc(-c2cc(NCc3cnn(C)c3C)c3cnn(C(C)C)c3n2)c1 (stereo not shown) [Example 46-1]
> 20 µM	CNCC(O)COc1cccc(-c2cc(N[C@H]3CO[C@@H]4OCC[C@@H]43)c3cnn(C(C)C)c3n2)c1 (stereo partly shown) [Example 47-1]
10 to 20 µM	CNCC(O)COc1cccc(-c2cc(N(C)CC3CCOCC3)c3cnn(C(C)C)c3n2)c1 (stereo not shown) [Example 48-1]
> 20 µM	CC(C)n1ncc2c(NC(=O)NC3CCOCC3)cc(-c3cccc(OCC(O)CN)c3)nc21 (stereo not shown) [Example 49-1]
> 20 µM	CC(C)n1ncc2c(NCc3cnc4ccccn34)cc(-c3cccc(OCC(O)CN)c3)nc21 (stereo not shown) [Example 50-1]
> 20 µM	CC(C)n1ncc2c(NC(=O)OCc3ccccc3)cc(-c3cccc(OCC(O)CN)c3)nc21 (stereo not shown) [Example 51-1]
> 20 µM	CNCC(O)COc1cccc(-c2cc(N3CCC(C(=O)OC)CC3)c3cnn(C(C)C)c3n2)c1 (stereo not shown) [Example 52-1]
> 20 µM	CNCC(O)COc1cccc(-c2cc(NCc3cnc4ccccn34)c3cnn(C(C)C)c3n2)c1 (stereo not shown) [Example 53-1]
> 20 µM	CNCC(O)COc1cccc(-c2cc(NC(=O)OCc3ccccc3)c3cnn(C(C)C)c3n2)c1 (stereo not shown) [Example 54-1]
> 20 µM	COc1nc(C)cc(C)c1CNc1cc(-c2cccc(OCC(O)CN)c2)nc2c1cnn2C(C)C (stereo not shown) [Example 55-1]
> 20 µM	CNCC(O)COc1cccc(-c2cc(NCCNC(=O)c3cccnc3)c3cnn(C(C)C)c3n2)c1 (stereo not shown) [Example 56-1]
> 20 µM	CNCC(O)COc1cccc(-c2cc(NCCNC(=O)c3ccn(C)n3)c3cnn(C(C)C)c3n2)c1 (stereo not shown) [Example 58-1]
> 20 µM	CNCC(O)COc1cccc(-c2cc(NCCCNC(=O)c3cccnc3)c3cnn(C(C)C)c3n2)c1 (stereo not shown) [Example 59-1]
> 20 µM	CNCC(O)COc1cccc(-c2cc(NCCCNC(=O)c3ccn(C)n3)c3cnn(C(C)C)c3n2)c1 (stereo not shown) [Example 60-1]
> 20 µM	CNCC(O)COc1cccc(-c2cc(NCCCCNC(=O)c3cccnc3)c3cnn(C(C)C)c3n2)c1 (stereo not shown) [Example 61-1]
> 20 µM	CNCC(O)COc1cccc(-c2cc(NCCCCNC(=O)c3ccn(C)n3)c3cnn(C(C)C)c3n2)c1 (stereo not shown) [Example 62-1]
> 20 µM	CNCC(O)COc1cccc(-c2cc(NCCCCCNC(=O)c3cccnc3)c3cnn(C(C)C)c3n2)c1 (stereo not shown) [Example 63-1]
10 to 20 µM	CNCC(O)COc1cccc(-c2cc(NCCCCCCNC(=O)c3cccnc3)c3cnn(C(C)C)c3n2)c1 (stereo not shown) [Example 65-1]
